In patent US20220168300A1, “Methods of Managing Vascular Conditions and Diabetic Peripheral Neuropathies” (Emory University, priority 2019, published 2022):

Legend:
[1] = Blood glucose and body weight in diabetic mice; assay type: in vivo; conditions: 50 mg/kg/day intraperitoneal for 4 weeks
Experimental: To investigate the preventive therapeutic effects of direct injection of belinostat on diabetic nerves, streptozotocin (STZ)-induced diabetic mice were randomly assigned to solvent-treated (DM) as vehicle controls or HDAC inhibitor-treated (DM+HDACi) groups. […] Belinostat was resuspended in 45% (2-hydroypropyl)-beta-cyclodextrin (HP-β-CD) and injected into mice via the intraperitoneal route at 50 mg/kg/day for 4 weeks.

[2] = system: streptozotocin (STZ)-induced diabetic mice; experiment: Sensory and motor nerve conduction velocities in diabetic neuropathy model; assay type: in vivo
Experimental: To investigate the preventive therapeutic effects of direct injection of belinostat on diabetic nerves, streptozotocin (STZ)-induced diabetic mice were randomly assigned to solvent-treated (DM) as vehicle controls or HDAC inhibitor-treated (DM+HDACi) groups. […] After intraperitoneal injection of belinostat or an equal volume of solvent vehicle (HP-β-CD), both sensory and motor nerve conduction velocities (NCVs) were measured for 18 weeks at every week (n=11-14, each group) from 0 week after treatment. Non-diabetic mice, which received solvent vehicle (HP-j-CD), were used as controls (NDM).

[3] = system: streptozotocin (STZ)-induced diabetic mice; experiment: Tactile allodynia (von Frey hair testing); assay type: in vivo
Experimental: To investigate the preventive therapeutic effects of direct injection of belinostat on diabetic nerves, streptozotocin (STZ)-induced diabetic mice were randomly assigned to solvent-treated (DM) as vehicle controls or HDAC inhibitor-treated (DM+HDACi) groups. […] To investigate preventive effects of belinostat in diabetic neuropathy, tactile response threshold, thermal withdrawal latency, and rotarod performance were tested. For assay of tactile allodynia, mice were transferred to a glass cage with a wire mesh floor allowing access to the plantar surface of the hind paws. Behavioral accommodation was allowed for approximately 15 min until cage exploration and major grooming activities ceased.

[4] = system: streptozotocin (STZ)-induced diabetic mice; experiment: Paw thermal withdrawal latency; assay type: in vivo
Experimental: To investigate the preventive therapeutic effects of direct injection of belinostat on diabetic nerves, streptozotocin (STZ)-induced diabetic mice were randomly assigned to solvent-treated (DM) as vehicle controls or HDAC inhibitor-treated (DM+HDACi) groups. […] For measurement of paw thermal withdrawal latency, mice were placed in an observation chamber on top of the thermal testing apparatus and allowed to acclimate to the warmed glass surface (30° C.) and surroundings for 15 min. The mobile heat source was maneuvered to below the center of the right hind paw and turned on, a process that activates a timer and locally warms the glass surface at a rate of approximately 1° C./s. When the mouse withdrew the paw, movement sensors stopped the timer and turned off the heat source. Right hind paw was measured three times and the mean of three measurements used as a composite source for each mouse. The response latency was converted to the response temperature using a time: floor temperature calibration curve that was constructed each day to allow for day-to-day variations in the surface heating rate.

[5] = system: streptozotocin (STZ)-induced diabetic mice; experiment: Rotarod performance test; assay type: in vivo
Experimental: To investigate the preventive therapeutic effects of direct injection of belinostat on diabetic nerves, streptozotocin (STZ)-induced diabetic mice were randomly assigned to solvent-treated (DM) as vehicle controls or HDAC inhibitor-treated (DM+HDACi) groups. […] For rotarod performance test, mice were placed on a rotarod apparatus to assess motor coordination and physical condition. Before the training session, each mouse was habituated to stay on the spindle with slow constant speed for 5 min. Mice were trained for 5 min at 45 rpm before measurement. The horizontal rod rotating by 45 rpm and the maximal length of observation time for each trial was 5 min.

[6] = system: streptozotocin (STZ)-induced diabetic mice; experiment: Vascularization of sciatic nerves (FITC-conjugated BSL1); assay type: in vivo; conditions: DM+HDACi, 18 weeks after treatment
[7] = system: streptozotocin (STZ)-induced diabetic mice; experiment: Intraepidermal nerve fiber density (PGP9.5 staining) in hind paw plantar skin; assay type: in vivo; conditions: DM+HDACi group
Description: To investigate the preventive therapeutic effects of direct injection of belinostat on diabetic nerves, streptozotocin (STZ)-induced diabetic mice were randomly assigned to solvent-treated (DM) as vehicle controls or HDAC inhibitor-treated (DM+HDACi) groups. […] To evaluate the protective effect of belinostat on diabetic intraepidermal nerve fiber, we stained IENF in hind paw plantar skin with pan-neuronal marker PGP9.5 and counted the number of fibers throughout the epidermis relative to length of tissue.

[8] = system: streptozotocin (STZ)-induced diabetic mice; experiment: Light and electron microscopy of sciatic nerve myelinated fibers; assay type: in vivo; conditions: DM+HDACi
Description: To investigate the preventive therapeutic effects of direct injection of belinostat on diabetic nerves, streptozotocin (STZ)-induced diabetic mice were randomly assigned to solvent-treated (DM) as vehicle controls or HDAC inhibitor-treated (DM+HDACi) groups. […] It was examined whether belinostat could affect the ultrastructure of diabetic nerves, which is characterized by morphological alterations in the myelin sheath, a hallmark of DN. Accordingly, light microscopy and transmission electron microscopy were performed on sciatic nerves obtained at 18 weeks after STZ injection. The alternation of myelination pattern was categorized into four groups: decompaction, infolding, focal lysis, and splitting. […] Axonal atrophy is associated with slowing of nerve conduction but is difficult to distinguish from loss of large diameter axons. A reduced index of circularity and an increased g-ratio supports the axonal atrophy. […] A loss of large diameter axons in the peripheral nerve system is the most frequent consequence of metabolic diseases such as diabetes.

[9] = system: HUVECs, Schwann cells (S16), and DRG neurons (ND7/23); experiment: Quantitative RT-PCR of gene expression in cells cultured in diabetic (high glucose) condition; conditions: in vitro experimental data using cells
Experimental: To determine effects of different types of HDAC inhibitors on different target cells, cells were cultured in diabetic condition (450 mg/dl glucose, 7 days) and were treated HDAC inhibitors for 7 days.

[10] = leading to increases in H3/H4 acetylation in brain tissue; cited from earlier work
Diabetic EPCs (D-EPCs) = experiment: DNA methylation (MSRE-PCR) and gene expression of angiogenic genes in D-EPCs; assay type: cell-based, rat
Description: Rescue of epigenetic silencing of angiogenic genes in D-EPCs Diabetic EPCs (D-EPCs) have high methylation in the promoter regions of key angiogenic and neurotrophic genes and small molecular epigenetic regulators can reverse these changes, increase gene expression and improve cellular functions. To prepare D-EPCs streptozotocin (STZ) was used to induce diabetic conditions. Differential expression of angiogenic genes was investigated between normal EPCs (N-EPCs) and D-EPCs using an Angiogenesis Microarray kit. The expression of many angiogenic genes was suppressed in D-EPCs. In this disclosure, histone deacetylase (HDAC) inhibitors, i.e., Vorinostat (Zolinza, SAHA), Belinostat (Beleodaq, PXD-101), and Quisinostat (JNJ-26481585), were used. The preliminary experiments were performed using rat EPCs as well as human and rat MSCs. To test the reversible changes of gene expression and epigenetic modifications in D-EPCs by small molecule epigenetic regulators, epigenetic profiling studies were performed using methylation-sensitive restriction enzyme (MSRE)-PCR assays. An HDAC inhibitor, valproic acid (VPA), was used as the epigenetic regulator.

[11] = sciatic nerve 18 weeks after STZ, n=406
[12] = sciatic nerve, P<0.001 versus DM

## O=C(/C=C/c1cccc(S(=O)(=O)Nc2ccccc2)c1)NO [Belinostat, (E)-N-hydroxy-3-[3-(phenylsulfamoyl)phenyl]prop-2-enamide]
[1]
  blood glucose levels and animal body weight compared to DM group: did not significantly alter
[2]; DM+HDACi group, over 15 weeks, 50 mg/kg/day i.p. for 4 weeks, P<0.001 versus DM
  sensory NCV: 34.76±0.61 m/s
[2]; DM+HDACi group, over 15 weeks, 50 mg/kg/day i.p. for 4 weeks, P<0.05 versus DM
  motor NCV: 51.15±2.60 m/s
[2]; FIG. 1A, direct injection, diabetic mice
  nerve conduction velocities (NCVs), effect in words: improved
[2]; FIG. 1B, diabetic mice over 15 weeks
  motor NCVs, effect in words: significantly improved
[3]; DM+HDACi group at 3 weeks of diabetes
  paw withdrawal threshold (von Frey): 0.15 ± 0.09 g
[3]; DM+HDACi group at 14 weeks after HDAC inhibitor injection, P<0.001 versus DM
  paw withdrawal threshold (von Frey): 1.33 ± 0.30 g
[3]; FIG. 2A, 14 weeks after belinostat injection
  paw withdrawal thresholds, effect in words: recovered to nondiabetic group
[4]; DM+HDACi group at 12 weeks of diabetes, P<0.001 versus DM
  paw withdrawal temperature: 34.30±0.24 °C
[4]; FIG. 2B, HDAC treated group
  thermal withdrawal latency, effect in words: maintained
[5]; DM+HDACi group, 45 rpm, max 5 min
  rotarod fall latency: 254.77 ± 25.23 s
[5]; FIG. 2C
  rotarod performance, DM versus DM+HDACi: no significant difference
[6]
  vascularity in sciatic nerves: increased vascularity
[7]
  number of intraepidermal nerve fibers (IENF): 30.61±1.83 IENF/mm
[8]
  g-ratio of myelinated sciatic nerve: 0.65±0.0044
[8]; sciatic nerve
  reduction of axonal circularity compared to NDM: 10.3%
[8]; [11]
  altered myelination pattern: decompaction: 6.35%
  altered myelination pattern: focal lysis: 7.22%
  altered myelination pattern: infolding: 1.49%
  altered myelination pattern: splitting: 0%
[8]; [12]
  axon diameter of myelinated axons: 4.17 ± 0.1 µm
  index of circularity of axon: 0.70
[9]
  upregulation of gene expression in vitro, compared to vorinostat and quisinostat: superior properties

## O=C(CCCCCCC(=O)Nc1ccccc1)NO [SAHA, suberoylanilide hydroxamic acid]
[10]
  blood-brain-barrier (BBB) crossing: can cross the blood-brain-barrier

## CCCC(CCC)C(=O)O [VPA, valproic acid]
Diabetic EPCs (D-EPCs)
  angiogenic gene expression: enhanced gene expression
Diabetic EPCs (D-EPCs); MSRE-PCR
  DNA methylation at promoters of angiogenic genes: reduced DNA methylation
